According to patent publication US20200246331A1, “Pharmaceutical combinations and their use” (Novartis AG, priority 2015, published 2020):
Where two headings read alike, the source gives them in different places.

How the values were obtained:
Assay type in all cases: cell-based
Mel270 UM cell line = test: 72 hr CellTiter-Glo cell proliferation assay, Mel270; settings: read-out: IC50 single agent activity
Protocol: (§1) Next, luminescence was recorded using the plate reader.

UM 92.1 cell line = test: 72 hr CellTiter-Glo cell proliferation assay, 92.1; settings: for IC50: 92.1 cell line, 72 hr CTG, read-out: IC50 single agent activity
Protocol: as §1
The percent growth inhibition and excess inhibition were analysed using the Chalice software (CombinatoRx, Cambridge Mass.). […] All remaining points in the grids display results from a combination of the two inhibitors that correspond to the single agent concentrations denoted on the two axes. Data analysis of cell proliferation was performed using Chalice Analyser as described in (Lehar et al. 2009). Excess inhibition was calculated using the Loewe synergy model which measures the effect on growth relative to what would be expected if two drugs behave in a dose additive manner. Positive numbers represent areas of increasing synergy.

OMM2.5 UM cell line = test: 72 hr CellTiter-Glo cell proliferation assay, OMM2.5; settings: read-out: IC50 single agent activity
Protocol: as §1

Mel285 UM cell line = test: 72 hr CellTiter-Glo cell proliferation assay, Mel285; settings: read-out: IC50 single agent activity
Protocol: as §1

Mel202 UM cell line = test: 72 hr CellTiter-Glo cell proliferation assay, Mel202; settings: read-out: IC50 single agent activity
Protocol: as §1

COc1cc2c(cc1OC(C)C)[C@H](c1ccc(Cl)cc1)N(c1ccc(N(C)C[C@H]3CC[C@H](N4CCN(C)C(=O)C4)CC3)cc1)C(=O)C2 [Compound A, (S)-1-(4-Chloro-phenyl)-7-isopropoxy-6-methoxy-2-(4-{methyl-[4-(4-methyl-3-oxo-piperazin-1-yl)-trans-cyclohexylmethyl]-amino}-phenyl)-1,4-dihydro-2H-isoquinolin-3-one]
IC50 (Mel270 UM cell line; Mel270 cell line, 72 hr CTG): 362 nM | IC50 (UM 92.1 cell line): 667 nM | IC50 (OMM2.5 UM cell line; OMM2.5 cell line, 72 hr CTG): 2570 nM | IC50 (Mel285 UM cell line; Mel285 cell line, 72 hr CTG): 1260 nM | IC50 (Mel202 UM cell line; Mel202 cell line, 72 hr CTG): 401 nM

COc1ncc(-c2nc3c(n2C(C)C)[C@H](c2ccc(Cl)cc2)N(c2cc(Cl)cn(C)c2=O)C3=O)c(OC)n1 [Compound B, (S)-5-(5-Chloro-1-methyl-2-oxo-1,2-dihydro-pyridin-3-yl)-6-(4-chloro-phenyl)-2-(2,4-dimethoxy-pyrimidin-5-yl)-1-isopropyl-5,6-dihydro-1H-pyrrolo[3,4-d]imidazol-4-one]
IC50 (Mel270 UM cell line; 72 h): 34 nM | IC50 (UM 92.1 cell line): 86 nM | IC50 (OMM2.5 UM cell line; 72 h): 249 nM | IC50 (Mel285 UM cell line; 72 h): 167 nM | IC50 (Mel202 UM cell line; Mel202, 72 h): 60 nM

CC1(N)CCN(c2cccnc2NC(=O)c2nc(-c3ncccc3C(F)(F)F)cnc2N)CC1 [Compound D, 3-amino-N-(3-(4-amino-4-methylpiperidin-1-yl)pyridin-2-yl)-6-(3-(trifluoromethyl)pyridin-2-yl)pyrazine-2-carboxamide]
efficacy as single agent compared with the other PKC inhibitor (UM 92.1 cell line; one UM cell line, single agent): more effective as a single agent
